Experimental data reported in ChEMBL document CHEMBL6134844, “Development of Next-Generation Antimalarial Acridones with Radical Cure Potential” (J Med Chem, 2025).
pIC50: −log10 of the molar value. Active and inactive are the calls of the source. No cut-off for these calls is given here.

Columns and labels:
Plasmodium falciparum [1] = experiment: Antiplasmodial activity against asexual blood-stage (ABS) CQ-sensitive Plasmodium falciparum D6 infected in human erythrocytes assessed as reduction in fluorescence measured after 72 hrs by Malaria SYBR Green I-based Fluorescence (MSF) assay; assay type: functional, organism-based; conditions: D6, Erythrocyte
Plasmodium falciparum [2] = experiment: Antiplasmodial activity against asexual blood-stage (ABS) MDR Plasmodium falciparum Dd2 infected in human erythrocytes assessed as reduction in fluorescence measured after 72 hrs by Malaria SYBR Green I-based Fluorescence (MSF) assay; assay type: functional, organism-based; conditions: Dd2, Erythrocyte
Plasmodium falciparum [3] = experiment: Antiplasmodial activity against asexual blood-stage (ABS) ATV-resistant clinical isolate Plasmodium falciparum Tm90-C2B infected in human erythrocytes assessed as reduction in fluorescence measured after 72 hrs by Malaria SYBR Green I-based Fluorescence (MSF) assay; assay type: functional, organism-based; conditions: Erythrocyte
HepG2 = experiment: Cytotoxicity against human HepG2 cells assessed as cell viability measured after 48 hrs by MTT assay; assay type: functional, cell-based; conditions: HepG2, 48 h
Plasmodium cynomolgi [4] = experiment: (§1) Antiplasmodial activity against hypnozoite Plasmodium cynomolgi B strain infected in Macaca mulatta hepatocytes incubated with sporozoite containing salivary gland homogenate obtained from dissected Anopheles dirus mosquitoes (infected with Plasmodium cynomolgi B strain) treatment started on day 4 post infection and continued daily for 4 days into fresh changed media until day 8 assessed as Liver stage (LS) activity by measuring prophylactic mode by immunofluorescent staining analysis; assay type: functional, organism-based; conditions: Hepatocyte
Plasmodium cynomolgi [5] = experiment: as §1, with “schizont” for “hypnozoite”; assay type: functional, organism-based; conditions: Hepatocyte
Plasmodium cynomolgi [6] = experiment: as §1, with “radical cure” for “prophylactic”; assay type: functional, organism-based; conditions: Hepatocyte
Plasmodium cynomolgi [7] = experiment: as §1, with “schizont” for “hypnozoite”, “radical cure” for “prophylactic”; assay type: functional, organism-based; conditions: Hepatocyte
[8] = as §1, with “Selectivity index, ratio of CC50 for Macaca mulatta hepatocytes to IC50 for antiplasmodial” for “Antiplasmodial”; assay type: toxicity, cell-based; conditions: rhesus monkey, read-out: Selectivity Index
[9] = as §1, with “Selectivity index, ratio of CC50 for Macaca mulatta hepatocytes to IC50 for antiplasmodial” for “Antiplasmodial”, “schizont” for “hypnozoite”; assay type: toxicity, cell-based; conditions: rhesus monkey, read-out: Selectivity Index
[10] = as §1, with “Selectivity index, ratio of CC50 for Macaca mulatta hepatocytes to IC50 for antiplasmodial” for “Antiplasmodial”, “radical cure” for “prophylactic”; assay type: toxicity, cell-based; conditions: rhesus monkey, read-out: Selectivity Index
[11] = as §1, with “Selectivity index, ratio of CC50 for Macaca mulatta hepatocytes to IC50 for antiplasmodial” for “Antiplasmodial”, “schizont” for “hypnozoite”, “radical cure” for “prophylactic”; assay type: toxicity, cell-based; conditions: rhesus monkey, read-out: Selectivity Index
Plasmodium yoelii [12] = experiment: In vivo antiplasmodial activity against asexual blood-stage (ABS) Plasmodium yoelii MRA-428 infected in 4-day suppression CF1 mouse model assessed as reduction in parasitemia by measuring protection at 30 mg/kg, po treated 24 hrs post infection daily measured up to 28 days; assay type: functional, organism-based; conditions: time <= 28.0 day
Plasmodium yoelii [13] = experiment: In vivo antiplasmodial activity against asexual blood-stage (ABS) Plasmodium yoelii MRA-428 infected in 4-day suppression CF1 mouse model assessed as reduction in parasitemia by measuring cured mouse at 100 mg/kg, po treated 24 hrs post infection daily for 4 days; assay type: functional, organism-based
[14] = Toxicity in CF1 mouse infected with asexual blood-stage (ABS) Plasmodium yoelii MRA-428 assessed as clinical toxicity at 0.3 to 30 mg/kg, po treated 24 hrs post infection measured after 4 days; assay type: organism-based; conditions: in vivo, dose 0.3-30 mg/kg
[15] = Toxicity in CF1 mouse infected with asexual blood-stage (ABS) Plasmodium yoelii MRA-428 assessed as behavioural change at 0.3 to 30 mg/kg, po treated 24 hrs post infection measured after 4 days; assay type: organism-based; conditions: in vivo, dose 0.3-30 mg/kg
Hepatocyte = experiment: (§2) Cytotoxicity against Macaca mulatta hepatocytes assessed as cell viability measured after 48 hrs by MTT assay; assay type: toxicity, cell-based; conditions: rhesus monkey, 48 h
[16] = human, microsomes, 1 h
[17] = mouse, microsomes, 1 h
[18] = Cmax in male ICR-CD1 mouse liver at 80 mg/kg, po; assay type: ADME, organism-based
[19] = Tmax in male ICR-CD1 mouse plasma at 80 mg/kg, po; assay type: ADME, organism-based
[20] = Half life in male ICR-CD1 mouse liver at 80 mg/kg, po; assay type: ADME, organism-based
[21] = AUClast in male ICR-CD1 mouse liver at 80 mg/kg, po; assay type: ADME, organism-based
[22] = AUCextrap in male ICR-CD1 mouse liver at 80 mg/kg, po; assay type: ADME, organism-based
[23] = AUCextrap in male ICR-CD1 mouse plasma at 80 mg/kg, po; assay type: ADME, organism-based
[24] = AUC(0 to infinity) in male ICR-CD1 mouse liver at 80 mg/kg, po; assay type: ADME, organism-based
[25] = Apparent oral clearance in male ICR-CD1 mouse liver at 80 mg/kg, po; assay type: ADME, organism-based
Plasmodium yoelii [26] = experiment: In vivo antiplasmodial activity against asexual blood-stage (ABS) Plasmodium yoelii MRA-428 infected in 4-day suppression CF1 mouse model assessed as reduction in parasitemia treated 24 hrs post infection daily measured on day 4; assay type: functional
Plasmodium berghei [27] = experiment: In vivo antiplasmodial activity against luciferase expressing liver stage Plasmodium berghei ANKA MRA-868 sporozoites infected in Albino C57BL/6 mouse model assessed as protection at 4 mg/kg, po daily measured 24 to 72 hrs by real-time In Vivo Imaging System (IVIS); assay type: functional, organism-based; conditions: time lower 24.0 hrs, time upper […]
Plasmodium berghei [28] = experiment: In vivo antiplasmodial activity against luciferase expressing liver stage Plasmodium berghei ANKA MRA-868 sporozoites infected in Albino C57BL/6 mouse model assessed as protection at 10 mg/kg, po daily measured 24 to 72 hrs by real-time In Vivo Imaging System (IVIS); assay type: functional; conditions: time lower 24.0 hrs, time upper […]
Plasmodium falciparum [29] = experiment: Ex vivo antiplasmodial activity against clinical isolate Plasmodium falciparum isolated from Ugandan measured after 72 hrs by growth inhibition assay; assay type: functional, organism-based
[30] = as §2; assay type: toxicity, cell-based, Hepatocyte; conditions: rhesus monkey
in vitro = conditions: human, liver microsomes
Plasmodium yoelii [31] = experiment: In vivo antiplasmodial activity against asexual blood-stage (ABS) Plasmodium yoelii MRA-428 infected in 4-day suppression CF1 mouse model assessed as reduction in parasitemia by measuring cured mouse at 80 mg/kg, po treated 24 hrs post infection daily for 4 days; assay type: functional, organism-based
Plasmodium yoelii [32] = experiment: In vivo antiplasmodial activity against asexual blood-stage (ABS) Plasmodium yoelii MRA-428 infected in 4-day suppression CF1 mouse model assessed as reduction in parasitemia by measuring protection at 10 mg/kg, po treated 24 hrs post infection daily for 4 days relative to control; assay type: functional; design: scale not given: the % may be the effect or the level left
Plasmodium yoelii [33] = experiment: In vivo antiplasmodial activity against asexual blood-stage (ABS) Plasmodium yoelii MRA-428 infected in 4-day suppression CF1 mouse model assessed as reduction in parasitemia by measuring cured mouse at 60 mg/kg, po single dose treated 24 hrs post infection; assay type: functional, organism-based
Plasmodium yoelii [34] = experiment: In vivo antiplasmodial activity against asexual blood-stage (ABS) Plasmodium yoelii MRA-428 infected in 4-day suppression CF1 mouse model assessed as reduction in parasitemia by measuring cured mouse at 100 mg/kg, po single dose treated 24 hrs post infection; assay type: functional, organism-based

SMILES	pIC50 (Plasmodium falciparum [1])	pIC50 (Plasmodium falciparum [2])	pIC50 (Plasmodium falciparum [3])	pIC50 (HepG2)	pIC50 (Plasmodium cynomolgi [4])	pIC50 (Plasmodium cynomolgi [5])	pIC50 (Plasmodium cynomolgi [6])	pIC50 (Plasmodium cynomolgi [7])	selectivity ratio at 96 h [8]	selectivity ratio at 96 h [9]	selectivity ratio at 96 h [10]	selectivity ratio at 96 h [11]	Activity [14]	Activity [15]	CC50 (Hepatocyte) [µM]	t1/2 [16] [min]	CLH [17] [µL/min/mg]	ED50 (Plasmodium yoelii [26]) [mg/kg]	ED90 (Plasmodium yoelii [26]) [mg/kg]	CC50 at 48 h [30] [µM]	other results
O=c1c2ccc(OCc3cccc(OC(F)(F)F)c3)cc2[nH]c2cc(Cl)cc(F)c12	10.11	11.00	9.01	< 3.70	6.60	7.70	6.15	6.21	12.6	165	4.66	5.34	Non-toxic	Non-toxic	3.31	> 60	57.4	–	–	–	Activity (Plasmodium yoelii [12]): Active; Out Of 4 - 3 Mouse Cured; Activity (Plasmodium yoelii [13]): Active
O=c1c2cc(F)c(Oc3ccc(OC(F)(F)F)cc3)cc2[nH]c2cc(Cl)cc(F)c12	12.13	12.38	9.32	< 3.70	6.80	7.40	6.25	6.47	3.62	14.5	1.04	1.71	Non-toxic	Non-toxic	0.58	> 60	16.1	0.16	0.3	–	Cmax [18]: 7980 ng/mL; Tmax [19]: 4 h; half-life [20]: 1250 min; AUC(0-t) [21]: 40000 ng·h/mL; AUC [22]: 3.14%; AUC [23]: 64.6 ng·h/mL; AUC(0-inf) [24]: 41300 ng·h/mL; CL/F [25]: 1.05 mL/min/kg; Activity (Plasmodium berghei [27]): Not active; Out Of 5 - 0 Mouse Cured; Activity (Plasmodium berghei [28]): Not active; Out Of 5 - 0 Mouse Cured; pIC50 (Plasmodium falciparum [29]): 9.02
O=c1c2ccc(Oc3cccc(OC(F)(F)F)c3)cc2[nH]c2cc(F)c(Cl)cc12	8.45	8.50	7.21	< 3.70	6.06	6.92	< 4.70	< 4.70	> 23	> 167	–	–	–	–	–	–	< 3.125	–	–	> 20	half-life at 1 h (in vitro): > 60 min
O=c1c2ccc(Oc3cccc(C(F)(F)F)c3)cc2[nH]c2cc(F)c(Cl)cc12	8.28	8.41	7.23	< 3.70	5.86	6.44	< 4.70	< 4.70	> 14.4	> 55.6	–	–	–	–	–	–	14.2	–	–	> 20	half-life at 1 h (in vitro): > 60 min
O=c1c2cc(Oc3ccc(OC(F)(F)F)cc3)ccc2[nH]c2cc(Cl)cc(F)c12	8.38	8.37	6.22	< 3.70	6.48	7.52	< 4.70	< 4.70	> 60.6	> 667	–	–	Non-toxic	Non-toxic	> 20	–	45.4	–	1.98	–	Activity (Plasmodium yoelii [31]): Active
O=c1c2ccc(Oc3ccc(OC(F)(F)F)cc3)cc2[nH]c2ccc(F)c(Cl)c12	8.99	9.08	7.28	< 3.70	6.28	7.10	5.17	5.46	16.7	111	1.31	2.57	Non-toxic	Non-toxic	8.87	> 60	11.6	0.29	0.33	–	Activity (Plasmodium yoelii [32]): 100%; Activity (Plasmodium yoelii [33]): Active; Activity (Plasmodium yoelii [34]): Active
